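Dose response: 5 concentrations. Exposure: 48 h. Format: 96-well plates. Endpoint: linear interpolation; highest concentration if not reached. The concentration for full growth arrest is given as TGI.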
Assays:
Test in all cases: DTP human tumour cell line panel, 48 h
RXF 393 renal = tested on: RXF 393 renal
HCC-2998 colon = tested on: HCC-2998 colon
A549 NSCLC = tested on: A549 NSCLC
LOX IMVI melanoma = tested on: LOX IMVI melanoma
IGROV1 ovarian = tested on: IGROV1 ovarian

In the case of `C=C1c2nc3ccccc3n2C=C(c2ccc(Cl)cc2)N1c1ccc(OCCN2CCOCC2)cc1`, the TGI (RXF 393 renal) is reported as > 100 µM, the TGI (HCC-2998 colon) is reported as > 100 µM and the TGI (A549 NSCLC) is reported as > 100 µM. The TGI (LOX IMVI melanoma) was > 100 µM and the TGI (IGROV1 ovarian) was > 100 µM.

`O=C(N=Nc1ccc([N+](=O)[O-])cc1)NNc1ccc([N+](=O)[O-])cc1` was tested, and the TGI (HCC-2998 colon) was 27.3 µM, the TGI (A549 NSCLC) was > 100 µM and the TGI (LOX IMVI melanoma) was 24.4 µM. The TGI (IGROV1 ovarian) was 26.8 µM.

Compound `COc1cc2c(cc1C)NC(=O)/C2=C/c1c(Cl)[nH]c2cc(C)c(OC)cc12` has a TGI (RXF 393 renal) of 22.1 µM, a TGI (HCC-2998 colon) of 11 µM and a TGI (A549 NSCLC) of 28.7 µM. For the same compound, the TGI (LOX IMVI melanoma) was 15.7 µM and the TGI (IGROV1 ovarian) was 16.1 µM.

For `c1ccc(Cc2cccc3cc(-c4ccc(-c5ccccc5)cc4)[nH]c23)cc1`, the TGI (HCC-2998 colon) was > 100 µM, the TGI (A549 NSCLC) was > 100 µM and the TGI (LOX IMVI melanoma) was > 100 µM. For the same compound, the TGI (IGROV1 ovarian) was > 100 µM.

In the case of `O=[N+]([O-])c1cc2n[nH]nc2c2nonc12`, the TGI (HCC-2998 colon) is reported as 38.7 µM, the TGI (A549 NSCLC) is reported as > 100 µM and the TGI (LOX IMVI melanoma) is reported as > 100 µM. For the same compound, the TGI (IGROV1 ovarian) was > 100 µM.

In the case of `Nn1c(CNc2ccc(-c3nnc(Nc4ccc(Cl)cc4)n3N)cc2)nnc1Nc1ccc(Cl)cc1`, the TGI (RXF 393 renal) is reported as > 100 µM, the TGI (HCC-2998 colon) is reported as > 100 µM and the TGI (A549 NSCLC) is reported as > 100 µM. The TGI (IGROV1 ovarian) was > 100 µM.

In the case of `O=c1oc2ncccc2n1Cc1ccc([N+](=O)[O-])cc1`, the TGI (RXF 393 renal) is reported as > 100 µM, the TGI (A549 NSCLC) is reported as > 100 µM and the TGI (LOX IMVI melanoma) is reported as > 100 µM. The TGI (IGROV1 ovarian) was > 100 µM.

In the case of `Cc1nn2c(N)cc(=O)nc2nc1/C=C/c1ccc(N(C)C)cc1`, the TGI (RXF 393 renal) is reported as > 100 µM, the TGI (HCC-2998 colon) is reported as 23.3 µM and the TGI (A549 NSCLC) is reported as > 100 µM. For the same compound, the TGI (LOX IMVI melanoma) was 22 µM and the TGI (IGROV1 ovarian) was > 100 µM.

In the case of `CC(C)(C)OC(=O)N1C(C2=COc3ccccc3O2)=COc2ccccc21`, the TGI (RXF 393 renal) is reported as 22.5 µM, the TGI (HCC-2998 colon) is reported as 37.2 µM and the TGI (A549 NSCLC) is reported as > 100 µM. The TGI (LOX IMVI melanoma) was 37.3 µM and the TGI (IGROV1 ovarian) was > 100 µM.

Work on `N#CS/C(C(Cl)=C(Cl)Cl)=C(/Cl)[N+](=O)[O-]` yielded a TGI (RXF 393 renal) of 2.98 µM, a TGI (HCC-2998 colon) of 34.6 µM and a TGI (A549 NSCLC) of 53.8 µM. It also gave a TGI (LOX IMVI melanoma) of 2.37 µM and a TGI (IGROV1 ovarian) of 5.63 µM.

With `CS(C)(=O)=N/C=C\C(=O)C(Cl)(Cl)Cl` the TGI (RXF 393 renal) was > 100 µM, the TGI (HCC-2998 colon) was > 100 µM and the TGI (A549 NSCLC) was > 100 µM. For the same compound, the TGI (LOX IMVI melanoma) was > 100 µM and the TGI (IGROV1 ovarian) was > 100 µM.

In the case of `Cn1c(-c2ccccc2)cc(-c2ccc3c(c2)OCO3)c1-c1cccs1`, the TGI (RXF 393 renal) is reported as > 100 µM, the TGI (HCC-2998 colon) is reported as > 100 µM and the TGI (A549 NSCLC) is reported as > 100 µM. The TGI (LOX IMVI melanoma) was > 100 µM and the TGI (IGROV1 ovarian) was > 100 µM.

With `CCOC(=O)/C(C(=S)NC)=C(/N)N1CCCC1` the TGI (RXF 393 renal) was > 100 µM, the TGI (HCC-2998 colon) was > 100 µM and the TGI (A549 NSCLC) was > 100 µM. For the same compound, the TGI (LOX IMVI melanoma) was > 100 µM and the TGI (IGROV1 ovarian) was > 100 µM.

For `O=C(Nc1ccc(Cl)cc1)c1cc(S(=O)(=O)Nc2n[nH]c(=O)[nH]2)c(SSc2cc(Cl)c(C(=O)Nc3ccc(Cl)cc3)cc2S(=O)(=O)Nc2n[nH]c(=O)[nH]2)cc1Cl`, the TGI (HCC-2998 colon) was > 100 µM, the TGI (A549 NSCLC) was > 100 µM and the TGI (LOX IMVI melanoma) was > 100 µM. For the same compound, the TGI (IGROV1 ovarian) was > 100 µM.

For `O=C(N/N=C(/COc1cccc(Cl)c1)N=Cc1ccncc1)c1ccncc1`, the TGI (RXF 393 renal) was > 100 µM, the TGI (HCC-2998 colon) was > 100 µM and the TGI (A549 NSCLC) was > 100 µM. The TGI (LOX IMVI melanoma) was > 100 µM and the TGI (IGROV1 ovarian) was > 100 µM.

With `O=C1/C(=C/c2ccc(O)cc2)NC(=S)N1CN1CCCCC1` the TGI (A549 NSCLC) was > 100 µM, the TGI (LOX IMVI melanoma) was > 100 µM and the TGI (IGROV1 ovarian) was > 100 µM.

In the case of `OC(c1cc(C(O)(C(F)(F)F)C(F)(F)F)ncn1)(C(F)(F)F)C(F)(F)F`, the TGI (RXF 393 renal) is reported as > 10 µM, the TGI (HCC-2998 colon) is reported as > 10 µM and the TGI (A549 NSCLC) is reported as > 10 µM. For the same compound, the TGI (LOX IMVI melanoma) was > 10 µM and the TGI (IGROV1 ovarian) was > 10 µM.

In the case of `CC1=CC(c2ccccc2)OP1(=O)c1ccccc1` (stereo not given), the TGI (HCC-2998 colon) is reported as > 100 µM, the TGI (A549 NSCLC) is reported as > 100 µM and the TGI (LOX IMVI melanoma) is reported as > 100 µM. The TGI (IGROV1 ovarian) was > 100 µM.

`CCCCc1ccc(Nc2nc3c(ncn3C3OC(COC(C)=O)C(OC(C)=O)C3OC(C)=O)c(=O)[nH]2)cc1` (stereo not given) was tested, and the TGI (RXF 393 renal) was 41.7 µM, the TGI (HCC-2998 colon) was 35.5 µM and the TGI (A549 NSCLC) was > 100 µM. The TGI (LOX IMVI melanoma) was 36 µM and the TGI (IGROV1 ovarian) was 37.7 µM.

With `N#CC12COC3(CCCCC3C1(C#N)C#N)OC2=N` (stereo not given) the TGI (RXF 393 renal) was 25.8 µM, the TGI (A549 NSCLC) was 66.8 µM and the TGI (LOX IMVI melanoma) was 30.3 µM. For the same compound, the TGI (IGROV1 ovarian) was 27.7 µM.

`COC(=O)C12CCC(C(=O)OC)(Cc3c(c4ccccc4n3S(=O)(=O)c3ccccc3)C1)C2=O` (stereo not given) was tested, and the TGI (RXF 393 renal) was 24.1 µM, the TGI (HCC-2998 colon) was > 100 µM and the TGI (A549 NSCLC) was > 100 µM. The TGI (LOX IMVI melanoma) was > 100 µM and the TGI (IGROV1 ovarian) was > 100 µM.

`Nc1[nH]c(=O)nc2sc3c(c12)CCCC3` was tested, and the TGI (RXF 393 renal) was > 100 µM, the TGI (HCC-2998 colon) was > 100 µM and the TGI (A549 NSCLC) was > 100 µM. The TGI (IGROV1 ovarian) was > 100 µM.

In the case of `COCCc1c(C)c(C#N)c2n(C)c3ccccc3n2c1=O`, the TGI (RXF 393 renal) is reported as > 10 µM, the TGI (HCC-2998 colon) is reported as > 10 µM and the TGI (A549 NSCLC) is reported as > 10 µM. For the same compound, the TGI (LOX IMVI melanoma) was > 10 µM and the TGI (IGROV1 ovarian) was > 10 µM.

In the case of `O=C1CCc2c3c(c4c([nH]c5ccccc54)c2CC1)C(=O)NC3=O`, the TGI (RXF 393 renal) is reported as 32.2 µM, the TGI (HCC-2998 colon) is reported as > 100 µM and the TGI (A549 NSCLC) is reported as > 100 µM. It also gave a TGI (LOX IMVI melanoma) of 21 µM and a TGI (IGROV1 ovarian) of 13.7 µM.

For `CCN(CC)CC(O)c1ccc2ccc3ccccc3c2c1` (stereo not given), the TGI (RXF 393 renal) was 31.4 µM, the TGI (HCC-2998 colon) was 23 µM and the TGI (A549 NSCLC) was 31.4 µM. For the same compound, the TGI (LOX IMVI melanoma) was 35.5 µM and the TGI (IGROV1 ovarian) was 33 µM.

`CCN(CC)CCN1c2ccccc2Sc2ccc3ccccc3c21` gave a TGI (RXF 393 renal) of 9.5 µM, a TGI (HCC-2998 colon) of 6.86 µM and a TGI (A549 NSCLC) of 27.8 µM. It also gave a TGI (LOX IMVI melanoma) of 21.4 µM and a TGI (IGROV1 ovarian) of 24.5 µM.

In the case of `O=C(O)CC(NC(=O)C(F)(F)F)C(=O)NC1Cc2ccccc2OC1=O` (stereo not given), the TGI (RXF 393 renal) is reported as > 100 µM, the TGI (HCC-2998 colon) is reported as > 100 µM and the TGI (A549 NSCLC) is reported as > 100 µM. The TGI (IGROV1 ovarian) was > 100 µM.

For `COc1cc(/C=C2\C(=O)N(c3cccc(Cl)c3)C(c3ccccc3)S2(=O)=O)cc(OC)c1OC` (stereo not given), the TGI (RXF 393 renal) was > 100 µM, the TGI (HCC-2998 colon) was > 100 µM and the TGI (A549 NSCLC) was > 100 µM. The TGI (LOX IMVI melanoma) was 97.2 µM.

In the case of `CCCCC1Cc2cc(O)ccc2-c2n1c1cc(O)ccc1[n+]2C` (stereo not given) (tested in a mixture with another compound), the TGI (RXF 393 renal) is reported as > 90.3 µM, the TGI (HCC-2998 colon) is reported as > 100 µM and the TGI (A549 NSCLC) is reported as > 100 µM. For the same compound, the TGI (LOX IMVI melanoma) was > 100 µM and the TGI (IGROV1 ovarian) was > 83.8 µM.

Work on `C/C(Cl)=N\OC(=O)Nc1ccc([N+](=O)[O-])cc1` yielded a TGI (RXF 393 renal) of 30.4 µM, a TGI (HCC-2998 colon) of 29.8 µM and a TGI (A549 NSCLC) of 47.5 µM. The TGI (LOX IMVI melanoma) was 9.93 µM and the TGI (IGROV1 ovarian) was 38.5 µM.

In the case of `NS(=O)(=O)c1nnc(NC(=O)CCC(=O)O)s1`, the TGI (RXF 393 renal) is reported as > 100 µM, the TGI (HCC-2998 colon) is reported as > 100 µM and the TGI (A549 NSCLC) is reported as > 100 µM. The TGI (LOX IMVI melanoma) was > 100 µM.

`CCN(CC)CCn1ncc2ccc3c(c(=O)c4cccnc4n3CCN(CC)CC)c21` was tested, and the TGI (RXF 393 renal) was 2.8 µM, the TGI (HCC-2998 colon) was 2.14 µM and the TGI (A549 NSCLC) was > 10 µM. The TGI (LOX IMVI melanoma) was > 6.79 µM and the TGI (IGROV1 ovarian) was 4.22 µM.

`C1CNCCN2CCCNCCN(C1)CC2` was tested, and the TGI (RXF 393 renal) was > 100 µM, the TGI (A549 NSCLC) was > 100 µM and the TGI (LOX IMVI melanoma) was > 100 µM. The TGI (IGROV1 ovarian) was > 100 µM.

For `C=CCCCCOC1C=CC(OC(C)=O)C(COC(C)=O)O1` (stereo not given), the TGI (RXF 393 renal) was > 100 µM, the TGI (HCC-2998 colon) was > 100 µM and the TGI (A549 NSCLC) was > 100 µM. For the same compound, the TGI (LOX IMVI melanoma) was > 100 µM and the TGI (IGROV1 ovarian) was > 100 µM.

From PubChem BioAssay (NCI)
